Test results as given in patent US20070128217A1 (priority 2003, published 2007).

Tests used:
[1] = system: control sera (pooled serum of ten healthy LUMC hospital workers; commercial negative donor pooled serum from the Dutch bloodbank); assay type: binding, human; design: Binding of Control serum LUMC to linear peptides / Binding of Control serum Blood-bank to linear peptides / Binding of Control serum LUMC to looped peptides / Binding of Control Serum Blood-Bank to Looped peptides / Binding of Control serum LUMC to linear peptides of the protein M of SARS-CoV Urbani / Binding of Control serum Blood-bank to linear peptides of the protein M of SARS-CoV Urbani / Binding of Control serum LUMC to looped peptides of the protein M of SARS-CoV Urbani / Binding of Control Serum Blood-Bank to Looped peptides of the protein M of SARS-CoV Urbani: unit not given here
[2] = system: antibodies in sera from SARS patients (sera 1a, 1b, 2, 6, 37, 62, London, SARS-yellow, SARS-green); assay type: binding, human; design: Binding of serum 6 to linear peptides of protein X1 of SARS-CoV Urbani / Binding of serum 37 to linear peptides of protein X1 of SARS-CoV Urbani / Binding of serum 6 to looped/cyclic peptide (PEPSCAN-ELISA) / Binding of serum 37 to looped/cyclic peptide (PEPSCAN-ELISA) / Binding of serum 37 to looped/cyclic peptides of protein X1 of SARS-CoV Urbani / Binding of serum 6 to linear peptides of protein X2 / Binding of serum 37 to linear peptides of protein X2 / Binding of serum 37 to looped/cyclic peptides of protein X2 of SARS-CoV Urbani / Binding of serum 6 to linear peptides of protein M of SARS-CoV Urbani / Binding of serum 37 to linear peptides of protein M of SARS-CoV Urbani / Binding of serum 6 to looped/cyclic peptides of protein M of SARS-CoV Urbani / Binding of serum 37 to looped/cyclic peptides of protein M of SARS-CoV Urbani / Binding of serum 6 to linear peptides of protein X3 of SARS-CoV Urbani / Binding of serum 37 to linear peptides of protein X3 of SARS-CoV Urbani / Binding of serum 37 to looped/cyclic peptides of protein X3 of SARS-CoV Urbani / Binding of serum 6 to linear peptides of protein X4 of SARS-CoV Urbani / Binding of serum 37 to linear peptides of protein X4 of SARS-CoV Urbani / Binding of serum 37 to looped/cyclic peptides of protein X4 of SARS-CoV Urbani / Binding of serum 6 to linear peptides of protein X5 of SARS-CoV Urbani / Binding of serum 37 to linear peptides of protein X5 of SARS-CoV Urbani / Binding of serum 37 to looped/cyclic peptides of protein X5 of SARS-CoV Urbani / Binding of serum 6 to linear peptides of protein N of SARS-CoV Urbani / Binding of serum 37 to linear peptides of protein N of SARS-CoV Urbani / Binding of serum 6 to linear peptide (PEPSCAN-ELISA) / Binding of serum 1a to looped/cyclic peptides of protein N of SARS-CoV Urbani / Binding of serum 1b to looped/cyclic peptides of protein N of SARS-CoV Urbani / Binding of serum 2 to looped/cyclic peptides of protein N of SARS-CoV Urbani / Binding of serum 6 to looped/cyclic peptides of protein N of SARS-CoV Urbani / Binding of serum 37 to looped/cyclic peptides of protein N of SARS-CoV Urbani / Binding of serum 62 to looped/cyclic peptides of protein N of SARS-CoV Urbani / Binding of serum London to looped/cyclic peptides of protein N of SARS-CoV Urbani / Binding of serum SARS-green to looped/cyclic peptides of protein N of SARS-CoV Urbani: unit not given here
[3] = system: rabbit serum obtained by immunizing a rabbit with the SARS-CoV strain Frankfurt 1; assay type: binding; design: Binding of a rabbit serum to linear peptides / Binding of a rabbit serum to looped peptides / Rabbit serum linear peptides / Rabbit serum looped peptides / Binding of a rabbit serum to linear peptides of protein N of SARS-CoV Urbani (Rabbit serum linear peptides) / Binding of a rabbit serum to looped/cyclic peptides of protein N of SARS-CoV Urbani (Rabbit serum looped peptides): unit not given here

VTDTIVVTEGDGIST
Binding of Control Serum Blood-Bank to Looped peptides [1]: 0.4
Binding of Control serum Blood-bank to linear peptides [1]: 0.4
Binding of Control serum LUMC to linear peptides [1]: 0.4
Binding of Control serum LUMC to looped peptides [1]: 0.4
Binding of serum 1a to linear peptides of protein X1 of SARS-CoV Urbani [2]: 0.6
Binding of serum 1a to looped/cyclic peptides of protein X1 of SARS-CoV Urbani [2]: 0.4
Binding of serum 1b to linear peptides of protein X1 of SARS-CoV Urbani [2]: 0.5
Binding of serum 1b to looped/cyclic peptides of protein X1 of SARS-CoV Urbani [2]: 0.3
Binding of serum 2 to linear peptides of protein X1 of SARS-CoV Urbani [2]: 0.3
Binding of serum 2 to looped/cyclic peptides of protein X1 of SARS-CoV Urbani [2]: 0.2
Binding of serum 6 to linear peptides of protein X1 of SARS-CoV Urbani [2]: 0.4
Binding of serum 6 to looped/cyclic peptides of protein X1 of SARS-CoV Urbani [2]: 0.1
Binding of serum 37 to linear peptides of protein X1 of SARS-CoV Urbani [2]: 0.5
Binding of serum 37 to looped/cyclic peptides of protein X1 of SARS-CoV Urbani [2]: 0.4
Binding of serum 62 to linear peptides of protein X1 of SARS-CoV Urbani [2]: 0.4
Binding of serum 62 to looped/cyclic peptides of protein X1 of SARS-CoV Urbani [2]: 0.4
Binding of serum London to linear peptides of protein X1 of SARS-CoV Urbani [2]: 0.2
Binding of serum London to looped/cyclic peptides of protein X1 of SARS-CoV Urbani [2]: 0.2
Binding of serum SARS-green to linear peptides of protein X1 of SARS-CoV Urbani [2]: 0.1
Binding of serum SARS-green to looped/cyclic peptides of protein X1 of SARS-CoV Urbani [2]: 0.2
Binding of serum SARS-yellow to linear peptides of protein X1 of SARS-CoV Urbani [2]: 0.3
Binding of serum SARS-yellow to looped/cyclic peptides of protein X1 of SARS-CoV Urbani [2]: 0.5
Binding of a rabbit serum to linear peptides [3]: 0.1
Binding of a rabbit serum to looped peptides [3]: 0.5

VTEGDGISTPKLKED
Binding of Control Serum Blood-Bank to Looped peptides [1]: 0.3
Binding of Control serum Blood-bank to linear peptides [1]: 0.2
Binding of Control serum LUMC to linear peptides [1]: 0.2
Binding of Control serum LUMC to looped peptides [1]: 0.3
Binding of serum 1a to linear peptides of protein X1 of SARS-CoV Urbani [2]: 0.5
Binding of serum 1a to looped/cyclic peptides of protein X1 of SARS-CoV Urbani [2]: 0.3
Binding of serum 1b to linear peptides of protein X1 of SARS-CoV Urbani [2]: 0.4
Binding of serum 1b to looped/cyclic peptides of protein X1 of SARS-CoV Urbani [2]: 0.2
Binding of serum 2 to linear peptides of protein X1 of SARS-CoV Urbani [2]: 0.3
Binding of serum 2 to looped/cyclic peptides of protein X1 of SARS-CoV Urbani [2]: 0.1
Binding of serum 6 to linear peptides of protein X1 of SARS-CoV Urbani [2]: 0.3
Binding of serum 6 to looped/cyclic peptides of protein X1 of SARS-CoV Urbani [2]: 0.1
Binding of serum 37 to linear peptides of protein X1 of SARS-CoV Urbani [2]: 0.4
Binding of serum 37 to looped/cyclic peptides of protein X1 of SARS-CoV Urbani [2]: 0.3
Binding of serum 62 to linear peptides of protein X1 of SARS-CoV Urbani [2]: 0.3
Binding of serum 62 to looped/cyclic peptides of protein X1 of SARS-CoV Urbani [2]: 0.3
Binding of serum London to linear peptides of protein X1 of SARS-CoV Urbani [2]: 0.3
Binding of serum London to looped/cyclic peptides of protein X1 of SARS-CoV Urbani [2]: 0.2
Binding of serum SARS-green to linear peptides of protein X1 of SARS-CoV Urbani [2]: 0.1
Binding of serum SARS-green to looped/cyclic peptides of protein X1 of SARS-CoV Urbani [2]: 0.1
Binding of serum SARS-yellow to linear peptides of protein X1 of SARS-CoV Urbani [2]: 0.2
Binding of serum SARS-yellow to looped/cyclic peptides of protein X1 of SARS-CoV Urbani [2]: 0.1
Binding of a rabbit serum to linear peptides [3]: 0.0
Binding of a rabbit serum to looped peptides [3]: 0.4

VTIAEILIIIMRTFR
Binding of Control Serum Blood-Bank to Looped peptides of the protein X3 of SARS-CoV Urbani [1]: 0.8
Binding of Control serum Blood-bank to linear peptides of the protein X3 of SARS-CoV Urbani [1]: 0.8
Binding of Control serum LUMC to linear peptides of the protein X3 of SARS-CoV Urbani [1]: 0.6
Binding of Control serum LUMC to looped peptides of the protein X3 of SARS-CoV Urbani [1]: 0.8
Binding of serum 1a to linear peptides of protein X3 of SARS-CoV Urbani [2]: 0.7
Binding of serum 1a to looped/cyclic peptides of protein X3 of SARS-CoV Urbani [2]: 0.7
Binding of serum 1b to linear peptides of protein X3 of SARS-CoV Urbani [2]: 0.3
Binding of serum 1b to looped/cyclic peptides of protein X3 of SARS-CoV Urbani [2]: 0.4
Binding of serum 2 to linear peptides of protein X3 of SARS-CoV Urbani [2]: 0.7
Binding of serum 2 to looped/cyclic peptides of protein X3 of SARS-CoV Urbani [2]: 0.7
Binding of serum 6 to linear peptides of protein X3 of SARS-CoV Urbani [2]: 0.7
Binding of serum 6 to looped/cyclic peptides of protein X3 of SARS-CoV Urbani [2]: 0.7
Binding of serum 37 to linear peptides of protein X3 of SARS-CoV Urbani [2]: 0.4
Binding of serum 37 to looped/cyclic peptides of protein X3 of SARS-CoV Urbani [2]: 0.6
Binding of serum 62 to linear peptides of protein X3 of SARS-CoV Urbani [2]: 0.6
Binding of serum 62 to looped/cyclic peptides of protein X3 of SARS-CoV Urbani [2]: 0.5
Binding of serum London to linear peptides of protein X3 of SARS-CoV Urbani [2]: 0.6
Binding of serum London to looped/cyclic peptides of protein X3 of SARS-CoV Urbani [2]: 0.3
Binding of serum SARS-green to linear peptides of protein X3 of SARS-CoV Urbani [2]: 0.5
Binding of serum SARS-green to looped/cyclic peptides of protein X3 of SARS-CoV Urbani [2]: 0.2
Binding of serum SARS-yellow to linear peptides of protein X3 of SARS-CoV Urbani [2]: 0.3
Binding of serum SARS-yellow to looped/cyclic peptides of protein X3 of SARS-CoV Urbani [2]: 0.6
Rabbit serum linear peptides [3]: 0.2
Rabbit serum looped peptides [3]: 0.4

VTIYSHLLLVAAGME
Binding of Control Serum Blood-Bank to Looped peptides [1]: 0.4
Binding of Control serum Blood-bank to linear peptides [1]: 0.5
Binding of Control serum LUMC to linear peptides [1]: 0.5
Binding of Control serum LUMC to looped peptides [1]: 0.6
Binding of serum 1a to linear peptides of protein X1 of SARS-CoV Urbani [2]: 0.8
Binding of serum 1a to looped/cyclic peptide (PEPSCAN-ELISA) [2]: 0.5
Binding of serum 1b to linear peptides of protein X1 of SARS-CoV Urbani [2]: 0.7
Binding of serum 1b to looped/cyclic peptide (PEPSCAN-ELISA) [2]: 0.4
Binding of serum 2 to linear peptides of protein X1 of SARS-CoV Urbani [2]: 0.5
Binding of serum 2 to looped/cyclic peptide (PEPSCAN-ELISA) [2]: 0.5
Binding of serum 6 to linear peptides of protein X1 of SARS-CoV Urbani [2]: 0.4
Binding of serum 6 to looped/cyclic peptide (PEPSCAN-ELISA) [2]: 0.3
Binding of serum 37 to linear peptides of protein X1 of SARS-CoV Urbani [2]: 0.6
Binding of serum 37 to looped/cyclic peptide (PEPSCAN-ELISA) [2]: 0.5
Binding of serum 62 to linear peptides of protein X1 of SARS-CoV Urbani [2]: 0.6
Binding of serum 62 to looped/cyclic peptide (PEPSCAN-ELISA) [2]: 0.4
Binding of serum London to linear peptides of protein X1 of SARS-CoV Urbani [2]: 0.3
Binding of serum London to looped/cyclic peptide (PEPSCAN-ELISA) [2]: 0.2
Binding of serum SARS-green to linear peptides of protein X1 of SARS-CoV Urbani [2]: 0.3
Binding of serum SARS-green to looped/cyclic peptide (PEPSCAN-ELISA) [2]: 0.3
Binding of serum SARS-yellow to linear peptides of protein X1 of SARS-CoV Urbani [2]: 0.6
Binding of serum SARS-yellow to looped/cyclic peptide (PEPSCAN-ELISA) [2]: 0.3
Binding of a rabbit serum to linear peptides [3]: 0.1
Binding of a rabbit serum to looped peptides [3]: 0.5

VTRPLMESELVIGAV
Binding of Control Serum Blood-Bank to Looped peptides of the protein M of SARS-CoV Urbani [1]: 0.9
Binding of Control serum Blood-bank to linear peptides of the protein M of SARS-CoV Urbani [1]: 0.6
Binding of Control serum LUMC to linear peptides of the protein M of SARS-CoV Urbani [1]: 0.4
Binding of Control serum LUMC to looped peptides of the protein M of SARS-CoV Urbani [1]: 1.0
Binding of serum 1a to linear peptides of protein M of SARS-CoV Urbani [2]: 0.8
Binding of serum 1b to linear peptides of protein M of SARS-CoV Urbani [2]: 0.6
Binding of serum 2 to linear peptides of protein M of SARS-CoV Urbani [2]: 0.9
Binding of serum 6 to linear peptides of protein M of SARS-CoV Urbani [2]: 0.2
Binding of serum 37 to linear peptides of protein M of SARS-CoV Urbani [2]: 1.0
Binding of serum 62 to linear peptides of protein M of SARS-CoV Urbani [2]: 0.9
Binding of serum London to linear peptides of protein M of SARS-CoV Urbani [2]: 0.3
Binding of serum SARS-green to linear peptides of protein M of SARS-CoV Urbani [2]: 0.3
Binding of serum SARS-yellow to linear peptides of protein M of SARS-CoV Urbani [2]: 0.1
Recognition of the peptide by sera of SARS-CoV infected individuals, and form (linear, looped/cyclic) in which it is recognized [2]: recognized in looped/cyclic form
Rabbit serum linear peptides [3]: 0.4
Rabbit serum looped peptides [3]: 0.2
